Reference: paper PMC8037910, “Effect of Chronic Administration of 5-(3-chlorophenyl)-4-Hexyl-2,4 -Dihydro-3H-1,2,4-Triazole-3-Thione (TP-315)—A New Anticonvulsant Drug Candidate—On Living Organisms” (International Journal of Molecular Sciences, 2021)
Read-outs that look alike come from different tables or passages of the source.

Columns and labels:
[1] = PAMPA BBB (parallel artificial membrane permeability assay); format: in vitro ADME; conditions: pH 7.4, 37 °C, donor 20 µg/mL, read-out: Permeability Coefficients (Pe × 10−6) ± SD
Description: BBB permeability of the compounds was investigated by using a PAMPA method (parallel artificial membrane permeability assay). The PAMPA system consisted of a 96-well microfilter plate and a 96-well filter plate and was divided into two chambers: a donor at the bottom and an acceptor at the top, separated by a 120-μm-thick microfilter disc coated with BBB lipid solution (Pion, Inc.). The solutions of each compound were prepared in dimethyl sulfoxide (DMSO) at 4 mg/mL concentration and then diluted with Prisma buffer (pH = 7.4) to obtain the donor drug solution with the final nominal concentration of 20 µg/mL. The donor solutions were placed on the donor plate. Acceptor plate contained Brain Sink Buffer (BSB). The plates were put together and incubated at 37 °C for 180 min in a humidity-saturated atmosphere. The concentrations of the compounds were determined with a UV-reader (Multiskan GO, Thermo Scientific) at 254 nm in the donor and acceptor compartments.
The permeability values (Pe) were calculated by using the following equation:(1) −ln(1−CA/Cequilibrium)/S×(1/VD+1/VA)×t where VD: donor volume, VA: acceptor volume, Cequilibrium: equilibrium concentration Cequilibrium=CD×VD+ CA×VA/VD+VA, CD: donor concentration, CA: acceptor concentration, S: membrane area, and t: incubation time (in seconds). High BBB permeation (CNS+) was expected for compounds with Pe > 5.19, whereas low BBB permeation (CNS-) was expected for compounds with Pe < 2.07 [21].

[2] = system: maximal electroshock-induced seizure (MES); parameters: method as in PMID 23291122, PMID 25226229, PMID 25090118; conditions: mice, cited from earlier work
[3] = system: 6 Hz psychomotor seizure model; parameters: method as in PMID 32253957; conditions: mice, cited from earlier work
[4] = system: mice; parameters: method as in PMID 23291122, PMID 25226229, PMID 25090118; unit not given here; conditions: chimney test, cited from earlier work
[5] = biological target: batrachotoxin-binding site on voltage-gated sodium channels; parameters: method as in PMID 25226229, PMID 30594731, PMID 28824309; conditions: read-out: Affinity towards Batrachotoxin-Binding Site on Sodium Channels IC50 ± SEM; cited from earlier work
[6] = system: mice; parameters: method as in PMID 23291122, PMID 25226229, PMID 25090118; conditions: rotarod test (†), the values are: TD50, cited from earlier work

| Structure (SMILES) | Papp at 180 min, 20 µg/mL [1] [nm/s] | Anticonvulsant Activity in MES Test ED50 ± S.E. ([2]; pretreatment time 15 min) [mg/kg] | Anticonvulsant Activity in MES Test ED50 ± S.E. ([2]; pretreatment time 30 min) [mg/kg] | Anticonvulsant Activity in MES Test ED50 ± S.E. ([2]; pretreatment time 60 min) [mg/kg] | Anticonvulsant Activity in MES Test ED50 ± S.E. ([2]; pretreatment time 120 min) [mg/kg] | Anticonvulsant Activity in 6 Hz Test ED50 ± SEM ([3]; pretreatment time 15 min) [mg/kg] | Anticonvulsant Activity in 6 Hz Test ED50 ± SEM ([3]; pretreatment time 30 min) [mg/kg] | Anticonvulsant Activity in 6 Hz Test ED50 ± SEM ([3]; pretreatment time 60 min) [mg/kg] | Anticonvulsant Activity in 6 Hz Test ED50 ± SEM ([3]; pretreatment time 120 min) [mg/kg] | Neurotoxicity in Chimney or Rotarod (†) Tests in Mice ([4]; pretreatment time 15 min) | Neurotoxicity in Chimney or Rotarod (†) Tests in Mice ([4]; pretreatment time 30 min) | Neurotoxicity in Chimney or Rotarod (†) Tests in Mice ([4]; pretreatment time 60 min) | Neurotoxicity in Chimney or Rotarod (†) Tests in Mice ([4]; pretreatment time 120 min) | IC50 [5] [µM] | Neurotoxicity in Chimney or Rotarod (†) Tests in Mice ([6]; pretreatment time 15 min) [mg/kg] | Neurotoxicity in Chimney or Rotarod (†) Tests in Mice ([6]; pretreatment time 30 min) [mg/kg] | Neurotoxicity in Chimney or Rotarod (†) Tests in Mice ([6]; pretreatment time 60 min) [mg/kg] | Neurotoxicity in Chimney or Rotarod (†) Tests in Mice ([6]; pretreatment time 120 min) [mg/kg] |
| --- | --- | --- | --- | --- | --- | --- | --- | --- | --- | --- | --- | --- | --- | --- | --- | --- | --- | --- |
| Cc1ccc(-n2c(-c3cccc(Cl)c3)n[nH]c2=S)cc1 [TP-10, 5-(3-Chlorophenyl)-4-(4-methylphenyl)-2,4-dihydro-3H-1,2,4-triazole-3-thione] | 402 ± 51 | 57.0 ± 9.4 | 74.5 ± 8.1 | 187.1 ± 18.8 | 281.4 ± 13.6 | 62.6 ± 13.2 | 61.1 ± 9.7 | 169.7 ± 18.5 | 167.6 ± 17.4 | 338.1 ± 12.0 | 338.1 ± 14.7 | 333.4 ± 18.6 | 395.1 ± 25.2 |  |  |  |  |  |
| CCCCCCn1c(Cc2cccc(Cl)c2)n[nH]c1=S [TP-427, 5-(3-Chlorobenzyl)-4-hexyl-2,4-dihydro-3H-1,2,4-triazole-3-thione] | 4770 ± 396 | 72.1 ± 7.0 | 74.5 ± 8.1 | 83.6 ± 3.8 | 97.9 ± 10.9 | 40.9 ± 6.4 | 46.6 ± 8.2 | 51.6 ± 6.9 | 64.9 ± 5.6 | >1000 | >1000 | 540.7 ± 20.9 | 548.5 ± 21.4 | 6.17 ± 1.43 |  |  |  |  |
| CC(C)Cn1c(Cc2cccc(Cl)c2)n[nH]c1=S [TPR-22, 5-(3-Chlorobenzyl)-4-isobutyl-2,4-dihydro-3H-1,2,4-triazole-3-thione] | 344 ± 83 | 130.4 ± 17.6 | 130.4 ± 17.6 | 159.9 ± 21.9 | 195.7 ± 21.5 |  |  |  |  |  |  |  |  | 18.9 ± 1.2 | 306 ± 19.8 | 314 ± 22 | 326 ± 23.1 | 330 ± 24.2 |
| CCCC(CCC)C(=O)O [Valproic acid, reference compound] | 154 ± 47.1 |  |  |  |  |  |  |  |  |  |  |  |  |  |  |  |  |  |
